Laboratory results: US6630507B1, “Cannabinoids as antioxidants and neuroprotectants” (The United States of America as represented by the …, priority 1998, dated 2003)

Assays:
[1] = Cyclic voltametry (oxidation potentials); assay type: physicochemical; settings: for oxidation (electron donation) potential by cyclic voltametry: scan +0 to 1.8 V, 100 mV per second, acetonitrile; for oxidation profile by cyclic voltametry: data not shown
Experimental: To investigate whether cannabinoids protect neurons against glutamate damage by reacting with ROS, the antioxidant properties of cannabidiol and other cannabinoids were assessed. Cyclic voltametry, a procedure that measures the ability of a compound to accept or donate electrons under a variable voltage potential, was used to measure the oxidation potentials of several natural and synthetic cannabinoids. These studies were performed with an EG&G Princeton Applied Research potentiostat/galvanostat (Model 273/PAR 270 software, NJ). The working electrode was a glassy carbon disk with a platinum counter electrode and silver/silver chloride reference. Tetraethylammonium chloride in acetonitrile (0.1 M) was used as an electrolyte. Cyclic voltametry scans were done from +0 to 1.8 V at scan rate of 100 mV per second. […] Anandamide, a cannabinoid receptor ligand without a cannabinoid like structure, was used as a non-responsive control. Each experiment was repeated twice with essentially the same results.

cannabinoid receptor = settings: cited from earlier work
NMDA receptor = settings: cited from earlier work
[2] = Iron catalyzed dihydrorhodamine oxidation (Fenton reaction); settings: 50 μM dihydrorhodamine, 300 μM t-butyl hydroperoxide, 0.5 μM iron, 5 minutes
[3] = test system: neurons (AMPA/kainate receptor mediated toxicity); experiment: AMPA and kainate receptor mediated toxicity in cultured neurons (LDH release); assay type: cell-based, Wistar rat; settings: for attenuation of glutamate toxicity, comparison of antioxidants: 100 μM glutamate, equimolar 5 μM antioxidant (FIG. 5B)
Experimental: (§1) Primary neuronal cultures were prepared according to the method of Ventra et al. (J. Neurochem. 66:1752-1761, 1996). Fetuses were extracted by Cesarian section from a 17 day pregnant Wistar rat, and the feral brains were placed into phosphate buffered saline. The cortices were then dissected out, cut into small pieces and incubated with papain for nine minutes at 37° C. After this time the tissue was dissociated by passage through a fire polished Pasteur pipette, and the resultant cell suspension separated by centrifugation over a gradient consisting of 10 mg/ml bovine serum albumin and 10 mg/ml ovomucoid (a trypsin inhibitor) in Earls buffered salt solution. The pellet was then re-suspended in high glucose, phenol red free Dulbeco's modified Eagles medium containing 10% fetal bovine serum, 2 mM glutamine, 100 IU penicillin, and 100 μg/ml streptomycin (DMEM). Cells were counted, tested for vitality using the trypan blue exclusion test and seeded onto poly-D-lysine coated 24 multiwell plates. After 96 hours, 10 μM fluoro-deoxyuridine and 10 μM uridine were added to block glial cell growth.
Astrocyte conditioned DMEM was used throughout the AMPA/kainate toxicity procedure and following glutamate exposure in the NMDAr mediated toxicity protocol. Media was conditioned by 24 hour treatment over a confluent layer of type I astrocytes, prepared from two day old Wistar rat pups. Cortices were dissected, cut into small pieces, and enzymatically digested with 0.25% trypsin. Tissue was then dissociated by passage through a fire polished Pasteur pipette and the cell suspension plated into untreated 75 cm^2 T-flasks. After 24 hours the media was replaced and unattached cells removed. Once astrocytes achieved confluence, cells were divided into four flasks. Media for experiments was conditioned by a 24 hour exposure to these astrocytes, after which time it was frozen at −20° C. until use. Astrocyte cultures were used to condition DMEM for no longer than two months.
To examine AMPA and kainate receptor mediated toxicity, neurons were cultured for 7-13 days, then exposed to 100 μM glutamate and 50 μM cyclothiazide (used to prevent AMPA receptor desensitization). […] Specific AMPA and kainate receptor ligands were also used to separately examine the effects of cannabinoids on AMPA and kainate receptor mediated events. Fluorowillardiine (1.5 μM) was the AMPA agonist and 4-methyl glutamate (10 μM) was the kainate agonist used to investigate receptor mediated toxicity. When specifically examining kainate receptor activity, cyclothiazide was replaced with 0.15 mg/ml Concanavalin-A.

[4] = test system: cultured neurons (NMDAr mediated toxicity); experiment: NMDA mediated toxicity in cultured neurons (LDH release); assay type: cell-based, Wistar rat; settings: 0.5 μg/ml, administered both during and post ischemia (FIG. 8)
Experimental: as §1
To examine NMDAr mediated toxicity, cultured neurons (cultured for 14-18 days) were exposed to 250 μM glutamate for 10 minutes in a magnesium free saline solution. […]

[5] = J. Pharmacol. Sci. 60:1433-1457 (1971); cited from earlier work

CCCCCCC(C)(C)c1cc(O)c2c(c1)OC(C)(C)[C@@H]1CC=C(CO)CC21 (single isomer, unassigned; (-)) [HU-211]
oxidation (electron donation) potential by cyclic voltametry [1]: donated electrons at a similar potential as the antioxidant BHT | affinity to the cannabinoid receptors (cannabinoid receptor): low affinity | activity at the NMDA receptor (NMDA receptor): retains NMDA receptor antagonist neuroprotective activity

CCCCC/C=C\C/C=C\C/C=C\C/C=C\CCCC(=O)NCCO [Anandamide, arachidonyl ethanolamide]
oxidation (electron donation) potential by cyclic voltametry [1]: did not undergo oxidation

Cc1cc(C(C)(C)C)c(O)c(C(C)(C)C)c1 [BHT]
prevention of dihydrorhodamine oxidation [2]: prevented dihydrorhodamine oxidation | attenuation of glutamate toxicity, comparison of antioxidants [3]: attenuated glutamate toxicity

CCCCC/C=C\C[C@H](O)/C=C/C=C\C/C=C\CCCC(=O)O [Compound 12-HETE, 12-(s)-hydroxy-eicosatetraenoic acid]
protection of cortical neurons from NMDAr toxicity [4]: best protection

CCCCCCC(C)(C)c1cc(O)c2c(c1)OC(C)(C)[C@@H]1CC=C(CO)C[C@@H]21 [HU-210, 1,1 dimethylheptyl (DMH) homolog of [3R,4R]-7-hydroxy-Δ^6THC]
cannabinomimetic activity relative to natural Δ^9 THC (cannabinoid receptor; U.S. Pat. No. 5,434,295): two orders of magnitude greater | side effects in subjects [5]: severe side effects, including fatigue, thirst, headache, and hypotension

CC(=O)Oc1cc(O[C@H](C)CCCc2ccccc2)cc2c1[C@@H]1C[C@H](O)CC[C@H]1[C@H](C)N2 [levanantrodol]
oxidation profile by cyclic voltametry [1]: oxidation profiles similar to cannabidiol and THC

CCCCCCC(C)(C)c1cc(O)c2c(c1)OC(C)(C)C1CCC(=O)CC21 (stereo not shown) [nabilone]
oxidation profile by cyclic voltametry [1]: oxidation profiles similar to cannabidiol and THC

Cc1c(C)c2c(c(C)c1O)CC[C@@](C)(CCC[C@H](C)CCC[C@H](C)CCCC(C)C)O2 [α-tocopherol]
attenuation of glutamate toxicity, comparison of antioxidants [3]: attenuated glutamate toxicity

tetrahydrocannabinol [THC]
prevention of dihydrorhodamine oxidation [2]: prevented dihydrorhodamine oxidation | oxidation (electron donation) potential by cyclic voltametry [1]: donated electrons at a similar potential as the antioxidant BHT | neuroprotection in presence of cannabinoid receptor antagonist SR-141716A ([3]; 5 μM compound plus SR-141716A (FIG. 2B)): Neither THC nor cannabidiol neuroprotection was affected | neuroprotection in AMPA/kainate receptor toxicity assays ([3]; 100 μM Glu, 5 μM compound (FIG. 2A)): similarly protective
